One may read the inhibition as the drop in the measured response relative to a control, in per cent.

Test in all cases: SelectScreen Z'LYTE kinase profiling
Holding throughout (assay type): biochemical
What all share (conditions): ATP at apparent KM

Test [1] has as its target T1, PDK1 Direct (Homo sapiens, UniProt O15530).
T1 sequence (O15530 1-556): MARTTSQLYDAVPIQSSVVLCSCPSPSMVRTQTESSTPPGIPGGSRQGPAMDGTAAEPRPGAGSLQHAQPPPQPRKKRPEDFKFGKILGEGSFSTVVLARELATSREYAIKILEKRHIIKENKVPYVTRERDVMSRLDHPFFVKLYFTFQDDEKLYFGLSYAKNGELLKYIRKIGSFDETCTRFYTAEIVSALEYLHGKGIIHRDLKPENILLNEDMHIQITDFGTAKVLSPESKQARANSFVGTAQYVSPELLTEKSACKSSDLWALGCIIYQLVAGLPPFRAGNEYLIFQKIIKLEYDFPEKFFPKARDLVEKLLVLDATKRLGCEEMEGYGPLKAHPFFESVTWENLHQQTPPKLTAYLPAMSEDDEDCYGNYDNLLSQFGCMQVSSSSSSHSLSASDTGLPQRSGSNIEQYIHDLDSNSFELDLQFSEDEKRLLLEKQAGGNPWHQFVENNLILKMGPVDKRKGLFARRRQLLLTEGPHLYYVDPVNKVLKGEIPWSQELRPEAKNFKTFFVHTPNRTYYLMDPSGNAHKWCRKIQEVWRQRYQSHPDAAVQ
Description: (§1) protein kinases at a compound concentration of 1 µM. Measurements were performed in duplicates
(§2) and at the particular apparent ATP KM of each individual kinase employing the activity based Z’LYTE®
(§3) kinase assay of the SelectScreen® Kinase Profiling Services (ThermoFisher Scientific).
(§4) kinases at a compound concentration of 1 µM. Measurements were performed in duplicates and at
(§5) the particular apparent ATP KM of each individual kinase employing the activity based Z’LYTE® kinase
(§6) assay of the SelectScreen® Kinase Profiling Services (ThermoFisher Scientific).

Test [2] concerns the target PLK1 (Homo sapiens, UniProt P53350).
Test [3] deals with MET (cMet) (Homo sapiens, UniProt P08581).
Description: as §1, §2, §3, §4, §5, §6
For test [4], the target named is T2, SGK (SGK1) (Homo sapiens, UniProt O00141).
T2 sequence (O00141 1-431): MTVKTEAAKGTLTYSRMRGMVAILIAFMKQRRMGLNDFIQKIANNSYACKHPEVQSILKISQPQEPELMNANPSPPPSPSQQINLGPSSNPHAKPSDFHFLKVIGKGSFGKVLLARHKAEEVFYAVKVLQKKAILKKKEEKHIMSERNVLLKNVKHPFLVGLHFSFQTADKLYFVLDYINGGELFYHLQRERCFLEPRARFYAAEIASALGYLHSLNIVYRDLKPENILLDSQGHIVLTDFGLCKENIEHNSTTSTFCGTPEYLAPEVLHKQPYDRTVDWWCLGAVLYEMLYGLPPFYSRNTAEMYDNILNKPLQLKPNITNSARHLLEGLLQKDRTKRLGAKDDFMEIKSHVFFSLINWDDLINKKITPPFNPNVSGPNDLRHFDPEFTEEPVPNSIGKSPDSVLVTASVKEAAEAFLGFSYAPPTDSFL
Description: as §1, §2, §3, §4, §5, §6

Test [5] has as its target CDK1/cyclin B (Homo sapiens, UniProt P06493).
Description: as §1, §2, §3, §4, §5, §6
The target in test [6] is CDK2/cyclin A (Homo sapiens, UniProt P24941).
Description: as §1, §2, §3, §4, §5, §6
The target in test [7] is PKN1 (PRK1) (Homo sapiens, UniProt Q16512).
Description: as §1, §2, §3, §4, §5, §6
Test [8] addresses T3, CAMK4 (CaMKIV) (Homo sapiens, UniProt Q16566).
T3 sequence (Q16566 1-473): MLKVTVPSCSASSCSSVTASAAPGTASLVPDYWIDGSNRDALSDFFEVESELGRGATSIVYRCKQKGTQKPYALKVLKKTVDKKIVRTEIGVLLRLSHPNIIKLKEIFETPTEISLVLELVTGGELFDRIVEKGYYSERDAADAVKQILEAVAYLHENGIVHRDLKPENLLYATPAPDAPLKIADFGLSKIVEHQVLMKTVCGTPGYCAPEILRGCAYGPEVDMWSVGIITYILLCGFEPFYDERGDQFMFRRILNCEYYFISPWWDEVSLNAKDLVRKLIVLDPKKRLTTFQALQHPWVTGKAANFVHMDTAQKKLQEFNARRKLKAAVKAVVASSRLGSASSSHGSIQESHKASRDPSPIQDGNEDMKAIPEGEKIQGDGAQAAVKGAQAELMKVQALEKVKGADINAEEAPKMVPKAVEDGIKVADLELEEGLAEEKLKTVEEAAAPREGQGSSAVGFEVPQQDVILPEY
Description: as §1, §2, §3, §4, §5, §6

The target in test [9] is EGFR (ErbB1) (Homo sapiens, UniProt P00533).
Description: as §1, §2, §3, §4, §5, §6
In test [10] the target is IGF1R (Homo sapiens, UniProt P08069).
Test [11] has as its target MARK3 (Homo sapiens, UniProt P27448).
Description: as §1, §2, §3, §4, §5, §6
Test [12] has as its target RPS6KA1 (RSK1) (Homo sapiens, UniProt Q15418).
Description: as §1, §2, §3, §4, §5, §6
In test [13] the target is RPS6KA3 (RSK2) (Homo sapiens, UniProt P51812).
Description: as §1, §2, §3, §4, §5, §6
Test [14] deals with T4, BMX (Homo sapiens, UniProt P51813).
T4 sequence (P51813 1-675): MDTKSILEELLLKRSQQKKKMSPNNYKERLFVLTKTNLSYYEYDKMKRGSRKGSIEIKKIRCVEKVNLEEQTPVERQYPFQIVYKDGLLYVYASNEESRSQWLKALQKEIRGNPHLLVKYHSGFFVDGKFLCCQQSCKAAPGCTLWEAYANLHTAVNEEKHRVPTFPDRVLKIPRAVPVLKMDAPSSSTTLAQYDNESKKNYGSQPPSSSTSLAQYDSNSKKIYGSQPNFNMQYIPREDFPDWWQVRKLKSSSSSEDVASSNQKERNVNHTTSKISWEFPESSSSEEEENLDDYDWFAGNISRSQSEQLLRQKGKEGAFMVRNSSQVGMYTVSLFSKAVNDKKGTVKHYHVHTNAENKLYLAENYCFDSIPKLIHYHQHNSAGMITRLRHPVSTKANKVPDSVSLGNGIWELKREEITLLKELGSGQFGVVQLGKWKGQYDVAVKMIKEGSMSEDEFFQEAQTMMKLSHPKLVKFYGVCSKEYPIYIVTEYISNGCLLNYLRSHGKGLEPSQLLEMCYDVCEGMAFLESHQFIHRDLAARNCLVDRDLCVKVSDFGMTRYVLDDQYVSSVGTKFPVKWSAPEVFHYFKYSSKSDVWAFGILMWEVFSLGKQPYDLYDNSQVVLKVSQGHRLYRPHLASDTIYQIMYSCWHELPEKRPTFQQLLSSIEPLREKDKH
Description: as §1, §2, §3, §4, §5, §6

In test [15] the target is FGFR1 (Homo sapiens, UniProt P11362).
Description: as §1, §2, §3, §4, §5, §6
For test [16], the target named is GRK5 (Homo sapiens, UniProt P34947).
Description: as §1, §2, §3, §4, §5, §6

Sequence of EGFR (ErbB1) (P00533 25-1210): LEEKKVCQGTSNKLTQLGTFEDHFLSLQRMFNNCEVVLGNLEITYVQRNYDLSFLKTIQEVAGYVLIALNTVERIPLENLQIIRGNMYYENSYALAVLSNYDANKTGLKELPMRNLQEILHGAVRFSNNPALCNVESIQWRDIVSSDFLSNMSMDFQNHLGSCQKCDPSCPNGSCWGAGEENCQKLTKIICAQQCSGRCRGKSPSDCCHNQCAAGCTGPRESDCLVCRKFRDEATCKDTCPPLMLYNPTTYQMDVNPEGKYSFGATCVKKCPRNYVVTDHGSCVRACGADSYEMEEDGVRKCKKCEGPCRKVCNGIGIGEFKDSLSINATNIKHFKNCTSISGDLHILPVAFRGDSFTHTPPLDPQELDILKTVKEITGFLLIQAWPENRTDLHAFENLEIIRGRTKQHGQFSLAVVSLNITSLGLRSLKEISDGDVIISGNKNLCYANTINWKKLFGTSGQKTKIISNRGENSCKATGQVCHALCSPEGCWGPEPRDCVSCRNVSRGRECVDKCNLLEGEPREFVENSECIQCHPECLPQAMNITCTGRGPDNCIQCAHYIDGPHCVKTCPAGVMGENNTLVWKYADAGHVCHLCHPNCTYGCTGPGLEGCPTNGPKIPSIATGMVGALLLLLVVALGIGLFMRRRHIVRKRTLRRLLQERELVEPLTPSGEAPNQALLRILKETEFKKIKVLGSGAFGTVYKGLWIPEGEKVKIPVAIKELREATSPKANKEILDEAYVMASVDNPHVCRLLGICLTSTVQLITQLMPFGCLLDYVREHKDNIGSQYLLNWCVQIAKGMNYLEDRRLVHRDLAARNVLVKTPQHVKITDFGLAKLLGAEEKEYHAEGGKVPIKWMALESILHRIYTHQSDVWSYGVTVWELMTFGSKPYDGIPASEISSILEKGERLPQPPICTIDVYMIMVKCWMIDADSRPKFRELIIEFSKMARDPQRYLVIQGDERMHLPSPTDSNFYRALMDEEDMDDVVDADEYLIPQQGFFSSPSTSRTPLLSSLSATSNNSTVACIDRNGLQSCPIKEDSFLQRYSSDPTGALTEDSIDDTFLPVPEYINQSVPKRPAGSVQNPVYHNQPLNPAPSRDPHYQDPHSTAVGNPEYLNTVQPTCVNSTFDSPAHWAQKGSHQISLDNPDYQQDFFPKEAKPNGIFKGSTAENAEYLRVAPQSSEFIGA
Sequence of IGF1R (P08069 31-1367): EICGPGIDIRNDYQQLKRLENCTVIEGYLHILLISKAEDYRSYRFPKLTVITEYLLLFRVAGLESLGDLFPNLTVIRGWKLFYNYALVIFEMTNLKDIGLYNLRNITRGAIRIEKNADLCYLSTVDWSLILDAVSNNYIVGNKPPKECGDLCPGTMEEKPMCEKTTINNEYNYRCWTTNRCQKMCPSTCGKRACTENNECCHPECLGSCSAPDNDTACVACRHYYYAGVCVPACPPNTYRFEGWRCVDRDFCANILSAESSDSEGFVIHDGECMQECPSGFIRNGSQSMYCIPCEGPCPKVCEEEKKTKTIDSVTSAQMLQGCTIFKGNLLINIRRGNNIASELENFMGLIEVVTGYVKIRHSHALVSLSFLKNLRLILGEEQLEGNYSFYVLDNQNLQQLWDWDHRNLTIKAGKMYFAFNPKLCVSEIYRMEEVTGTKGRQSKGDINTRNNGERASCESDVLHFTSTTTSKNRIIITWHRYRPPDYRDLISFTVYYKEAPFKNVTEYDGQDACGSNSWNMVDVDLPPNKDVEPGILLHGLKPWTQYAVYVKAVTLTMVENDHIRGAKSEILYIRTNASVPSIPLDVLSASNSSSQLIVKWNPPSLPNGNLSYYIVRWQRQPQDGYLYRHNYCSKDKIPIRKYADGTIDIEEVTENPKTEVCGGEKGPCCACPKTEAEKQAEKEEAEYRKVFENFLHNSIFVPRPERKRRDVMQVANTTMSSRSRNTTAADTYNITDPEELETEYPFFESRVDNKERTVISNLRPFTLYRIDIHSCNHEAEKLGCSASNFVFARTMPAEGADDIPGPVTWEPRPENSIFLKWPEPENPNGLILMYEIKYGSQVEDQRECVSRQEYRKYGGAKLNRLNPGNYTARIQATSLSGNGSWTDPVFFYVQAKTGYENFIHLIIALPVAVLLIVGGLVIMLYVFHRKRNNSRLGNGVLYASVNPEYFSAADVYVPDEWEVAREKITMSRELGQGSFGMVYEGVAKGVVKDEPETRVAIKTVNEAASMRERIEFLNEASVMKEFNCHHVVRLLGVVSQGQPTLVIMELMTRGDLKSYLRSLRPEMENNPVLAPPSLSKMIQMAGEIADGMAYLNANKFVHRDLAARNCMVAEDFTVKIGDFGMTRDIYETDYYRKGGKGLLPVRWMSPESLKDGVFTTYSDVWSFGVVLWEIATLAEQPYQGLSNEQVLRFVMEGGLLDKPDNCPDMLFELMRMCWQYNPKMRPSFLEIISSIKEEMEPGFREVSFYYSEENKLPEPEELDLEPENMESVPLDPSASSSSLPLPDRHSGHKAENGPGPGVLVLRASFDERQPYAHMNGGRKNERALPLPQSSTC
Sequence of PLK1 (P53350 whole entry): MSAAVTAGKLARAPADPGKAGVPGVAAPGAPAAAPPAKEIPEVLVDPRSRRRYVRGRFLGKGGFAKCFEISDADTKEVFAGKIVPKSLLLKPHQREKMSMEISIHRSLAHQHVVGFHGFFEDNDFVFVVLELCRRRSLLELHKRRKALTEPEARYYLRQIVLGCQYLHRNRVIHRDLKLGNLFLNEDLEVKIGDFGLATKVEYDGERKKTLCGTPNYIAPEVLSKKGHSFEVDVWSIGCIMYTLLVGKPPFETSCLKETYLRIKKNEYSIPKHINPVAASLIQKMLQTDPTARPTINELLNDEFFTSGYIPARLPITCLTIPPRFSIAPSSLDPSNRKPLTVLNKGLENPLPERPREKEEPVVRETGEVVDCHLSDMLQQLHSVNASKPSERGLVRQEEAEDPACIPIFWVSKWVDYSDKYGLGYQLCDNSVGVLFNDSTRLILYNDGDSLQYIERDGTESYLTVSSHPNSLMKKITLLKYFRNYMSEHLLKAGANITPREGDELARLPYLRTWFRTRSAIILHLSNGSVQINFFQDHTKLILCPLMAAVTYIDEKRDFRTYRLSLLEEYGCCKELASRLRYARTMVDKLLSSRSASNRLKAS
Sequence of FGFR1 (P11362 22-822): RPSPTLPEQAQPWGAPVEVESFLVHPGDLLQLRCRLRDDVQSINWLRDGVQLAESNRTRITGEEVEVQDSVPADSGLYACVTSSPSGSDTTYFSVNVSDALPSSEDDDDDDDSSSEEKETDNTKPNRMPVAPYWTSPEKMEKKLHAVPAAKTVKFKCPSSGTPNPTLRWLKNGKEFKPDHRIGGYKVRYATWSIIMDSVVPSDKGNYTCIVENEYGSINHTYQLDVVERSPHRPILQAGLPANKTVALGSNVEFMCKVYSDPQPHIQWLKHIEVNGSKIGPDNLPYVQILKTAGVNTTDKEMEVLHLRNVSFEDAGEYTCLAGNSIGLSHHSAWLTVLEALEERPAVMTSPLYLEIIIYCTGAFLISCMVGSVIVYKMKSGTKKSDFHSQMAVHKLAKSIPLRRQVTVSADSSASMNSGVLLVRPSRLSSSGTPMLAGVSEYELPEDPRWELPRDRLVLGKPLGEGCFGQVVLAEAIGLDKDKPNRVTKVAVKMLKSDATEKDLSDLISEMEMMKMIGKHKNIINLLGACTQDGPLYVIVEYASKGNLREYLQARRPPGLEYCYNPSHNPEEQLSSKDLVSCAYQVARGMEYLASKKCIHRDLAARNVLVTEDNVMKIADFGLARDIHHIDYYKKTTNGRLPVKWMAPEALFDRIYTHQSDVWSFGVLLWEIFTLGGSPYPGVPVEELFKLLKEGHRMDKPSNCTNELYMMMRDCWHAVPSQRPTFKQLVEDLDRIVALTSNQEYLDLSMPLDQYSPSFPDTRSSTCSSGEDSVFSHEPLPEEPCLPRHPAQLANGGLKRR
Sequence of MARK3 (P27448 whole entry): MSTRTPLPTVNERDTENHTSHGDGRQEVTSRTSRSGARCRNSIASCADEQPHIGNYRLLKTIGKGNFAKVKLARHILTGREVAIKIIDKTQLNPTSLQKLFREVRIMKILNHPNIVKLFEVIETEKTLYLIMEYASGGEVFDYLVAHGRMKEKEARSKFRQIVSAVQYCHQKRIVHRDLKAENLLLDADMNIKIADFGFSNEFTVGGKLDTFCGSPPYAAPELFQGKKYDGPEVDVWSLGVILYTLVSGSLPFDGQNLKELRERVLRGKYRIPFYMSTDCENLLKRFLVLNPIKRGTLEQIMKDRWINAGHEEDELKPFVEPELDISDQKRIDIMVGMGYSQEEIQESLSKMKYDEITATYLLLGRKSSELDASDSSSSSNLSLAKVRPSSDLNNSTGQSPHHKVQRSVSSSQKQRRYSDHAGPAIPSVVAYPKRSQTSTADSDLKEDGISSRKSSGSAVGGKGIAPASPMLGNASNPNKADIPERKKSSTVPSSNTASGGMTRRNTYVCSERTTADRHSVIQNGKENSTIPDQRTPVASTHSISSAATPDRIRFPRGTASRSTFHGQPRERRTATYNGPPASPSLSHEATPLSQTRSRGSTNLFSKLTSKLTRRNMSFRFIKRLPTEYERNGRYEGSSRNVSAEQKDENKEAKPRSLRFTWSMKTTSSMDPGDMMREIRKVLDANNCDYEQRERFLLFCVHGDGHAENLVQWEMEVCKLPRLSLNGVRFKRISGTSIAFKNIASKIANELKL

Regarding `C=CC(=O)Nc1ccc2c(c1)n(C1CCN(Cc3ccc(-c4nc5cc[nH]c(=O)c5cc4-c4ccccc4)cc3)CC1)c(=O)n2C` [24b], the inhibition at 1 µM in test [1] was 8%; in test [2] it was 5%; in test [3], 1%; in test [4] it was 19%; in test [5] it was 3%; in test [6] it was 7%. The inhibition at 1 µM in test [7] was -1%; in test [8], -1%; in test [9], -8%; in test [10], 6%; in test [11] it was -1%; in test [12], 14%. Further, the inhibition at 1 µM in test [13] was 14%; in test [14] it was 28%; in test [15] it was 7%; in test [16], -10%.

Turning to `C=CC(=O)Nc1cccc(C(=O)NC2CCN(Cc3ccc(-c4nc5cc[nH]c(=O)c5cc4-c4ccccc4)cc3)CC2)c1` [30b], the inhibition at 1 µM turned out to be 1% in test [1]; 6% in test [2]; 0% in test [3]; 29% in [4]; 3% in test [5]; 11% in test [6]. The inhibition at 1 µM in test [7] was found to be 1%; in [8], 10%; in test [9], 1%; in test [10] it was 1%; in test [11], 3%; in test [12] it was 27%. In addition, the inhibition at 1 µM was 30% in test [13], 44% in [14], 10% in test [15] and -1% in test [16].

Regarding `C=CC(=O)Nc1cc(NC(=O)NC2CCN(Cc3ccc(-c4nc5cc[nH]c(=O)c5cc4-c4ccccc4)cc3)CC2)ccc1Cl` [compound 27], the inhibition at 1 µM came out at 3% in test [1]; 1% in [2]; 4% in test [3]; 21% in test [4]; 3% in test [5]; 6% in [6]. Also, the inhibition at 1 µM worked out at 6% in [7]; 8% in [8]; 2% in [9]; 7% in [10]; 3% in test [11]; 22% in test [12]. For the same compound, the inhibition at 1 µM in [13] was 23%; in test [14], 3%; in test [15], 24%; in test [16], -2%.

(Values after paper PMC6430017, “Structural and chemical insights into the covalent-allosteric inhibition of the protein kinase Akt” (Chemical Science, 2019).)
